Test results taken from PubChem BioAssay AID463229 (Broad Institute, 2010).

Each molecule was assayed on INS-1E rat beta cells, no cytokines, CellTiter-Glo ATP, 48 h (assay: ATP level change in INS-1E without cytokines, dose response, counter-screen for beta-cell apoptosis protection project, INS-1E rat cells, ATP luminescence, cherry pick (AID 463229)).

SMILES	AC50 [µM]
CCCC12C(=O)C(C)(C(c3ccccc3)=C1c1ccccc1)C1C(=O)N(c3ccc(C)cc3)C(=O)C12 (configuration not stated)	4.4
C=C(C)C(=O)O[C@H]1C/C(C)=C\C(=O)/C=C(\C)[C@H](O)[C@@H]2OC(=O)C(=C)[C@@H]21	14.5
CCOC(=O)c1c(NC(=O)/C=C/C(=O)O)sc(C)c1-c1ccc(C(C)(C)C)cc1	7.17
C/C(=N\NC(=O)c1cc(C)nc2ccccc12)c1ccccn1	2.83
COCC1CCCCN1C(=O)c1cc(COc2ccc3ncccc3c2)on1 (configuration not stated)	7.39
Cc1csc2c(N3CCN(C(=O)c4ccc(C(C)(C)C)cc4)CC3)ncnc12	14.9
Cn1cccc1C1C=C(c2ccc(C(C)(C)C)cc2)Nc2ncnn21 (configuration not stated)	3.2
Cc1nn(Cc2c(Cl)cccc2Cl)c(C)c1NC(=O)c1cn(-c2ccccc2)nc1-c1ccccc1	4.24
CC(C)(C)c1ccc(C(=O)Nc2ccc(C(=O)NCc3cccnc3)cc2)cc1	< 0.195
O=C(Nc1ccccc1Cl)/C(Cl)=C(\Cl)S(=O)c1ccccc1 (configuration not stated)	2.9
CCCCCCCCCn1ccc(=N)cc1	0.553
Cc1[nH]c2ccccc2c1CN1CCC(Cc2ccccc2)CC1	3.99
O=S(=O)(c1ccc2nc(Nc3ccccc3)ccc2c1)N1CCCCC1	22.4
O=C(N/N=C/c1cccc(F)c1)c1c(O)c2ccccc2[nH]c1=O	4.35
COc1ccc(/C=C/C(=O)c2ccc([N+](=O)[O-])o2)cc1	12.5
COc1ccc(CNC[C@@H](CCCCN(C)Cc2ccc(OC)cc2)N2C[C@H](c3ccccc3)N(CCc3ccc(Cl)c(Cl)c3)C(=O)C2=O)cc1	7.17
COc1ccc(N=C2S/C(=C\c3ccc(N4CCOCC4)o3)C(=O)N2CCc2c[nH]c3ccccc23)cc1	13.8
Cc1ccc(S(=O)(=O)/N=C2\C(=O)c3ccccc3C([O-])=C2n2cc[n+](CCC(C)C)c2)cc1	16.7
COc1cc(C(=O)NC(=S)NNC(=O)c2cnccn2)cc(OC)c1OC	7.66
CC1CCN(Cc2c(C(=O)N/N=C/c3ccccc3O)nnn2-c2nonc2N)CC1	5.67
FC(F)(F)c1nnc2c(Sc3ccccc3)nc3ccc(Cl)cc3n12	11.1
COc1ccc(C(NC(=O)C(C)C)c2ccc3cccnc3c2O)cc1 (configuration not stated)	2.84
CC(Oc1ccc(Cl)cc1Cl)c1nc(-c2ccc(NC(=O)c3cccnc3)cc2)no1 (configuration not stated)	0.906
Cc1ccc(-c2csc(N3CCC(NS(=O)(=O)c4ccc5c(c4)OCCO5)CC3)n2)cc1	6.85
O=C(Nc1nc(-c2ccccn2)cs1)c1ccc([N+](=O)[O-])o1	6.03
COc1ccc(-c2c[n+](CC(=O)OC3CC(C)CCC3C(C)C)c3n2CCC3)cc1 (configuration not stated)	1.87

SMILES	AC50 [µM]
O=C(Nc1ccc(Cl)cc1)c1nc[nH]c1C(=O)NCCN(CCNC(=O)c1[nH]cnc1C(=O)Nc1ccc(Cl)cc1)CCNC(=O)c1[nH]cnc1C(=O)Nc1ccc(Cl)cc1	8.08
C#CCOCCOCCOCCNc1nc(N2CCN(C(=O)CCCCCCCCCCNC(=O)[C@H](CCCCN)n3cc(C[C@@H](C)CC)nn3)CC2)nc(N2CCN(C(=O)CCCCCCCCCCNC(=O)[C@@H]([C@H](C)O)n3cc(C)nn3)CC2)n1	6.91
Cc1ccc(Cl)cc1NC1=C/C(=N\S(=O)(=O)c2cccs2)c2ccccc2C1=O	4.61
OC(CNCCC1C=Nc2ccccc21)Cn1c2ccc(Cl)cc2c2cc(Cl)ccc21 (configuration not stated)	7.93
COc1cccc(C(=O)N/N=C(/c2ccccc2)c2ccccn2)c1	3.73
C=CCNC(=S)N/N=C(\C)c1ccccn1	1.22
CCN(c1ccccc1)S(=O)(=O)c1ccc(C(=O)NC2CCN(Cc3ccccc3)CC2)cc1	6.36
CCN1CCN(Cc2ccc(NC(=O)c3ccc(C)c(NC(=O)c4c[nH]c5cc(C(F)(F)F)ccc5c4=O)c3)cc2C(F)(F)F)CC1	7.07
c1ccc(-c2nc3nonc3nc2-c2ccccc2)cc1	11.1
COc1cc(/C=N/NC(=O)c2cccnc2)ccc1OC(=O)c1cc(OC)c(OC)c(OC)c1	2.51
N=c1ccn(Cc2ccc(Cl)cc2Cl)cc1	7.81
Oc1cc(-c2ccc(N3CCCCC3)nc2)cc2cccnc12	7.31
Cc1[nH]n(-c2ccc(Br)cc2)c(=O)c1/C=N/NC(=O)c1ccccc1	2.13
C=C1C(=O)O[C@H]2C[C@@H](C)[C@@H]3C=CC(=O)[C@@]3(C)C[C@H]12	7.64
COC(=O)c1ccccc1NC1=C/C(=N\S(=O)(=O)c2ccc(C(=O)O)cc2)c2ccccc2C1=O	9.17
N#CC(c1cccc(Cl)c1)c1ccc2c(C(F)(F)F)cc(C(F)(F)F)nc2n1 (configuration not stated)	0.868
CCOC(=O)N1CCN(S(=O)(=O)c2ccc(C(=O)NNc3nc4c(C)cc(C)cc4s3)cc2)CC1	11.3
O=C(COc1ccc(Cl)cc1)Nc1ccc(C(=O)NCc2cccnc2)cc1	0.236
Cc1ccc(C[n+]2cccc(-c3ccccc3)c2)c(C)c1	5.1
Cc1ccc(NC(=O)Cc2nn(C)c(=O)c3ccccc23)cc1F	6.97
COc1cccc(/C=N/Nc2ncnc(Cl)c2N)c1O	4.32
CCCN(CCC)C(=O)c1cc([N+](=O)[O-])cc2c1-c1ccc([N+](=O)[O-])cc1C2=C(C#N)C#N	14.2
S=C(Nc1ccc(Cl)cc1)Nc1cccc2cnccc12	22.2
CN(C)CCCN(C(=O)COc1ccc(Cl)cc1)c1nc2cc3c(cc2s1)OCO3	15.6
COc1cccc(/C=N\NC(=O)c2ccc(Cn3cc(Br)c([N+](=O)[O-])n3)o2)c1O	7.9
CN(C)c1cc[n+](CC(=O)Nc2ccc(Oc3ccccc3)cc2)cc1	2.36
